# Non-standard residues stand in square brackets, D forms with d. Residues, ends and D or L forms follow the SMILES beside them. Phe(4-I) = N[C@@H](Cc1ccc(I)cc1)C(=O)O; Nle = CCCC[C@H](N)C(=O)O; Aib = CC(C)(N)C(=O)O
# Molecular target: human MC4R (Homo sapiens, UniProt P32245)
# Test: Intracellular cAMP levels in live cells, MC3R selectivity relative to MC4R
# Assay type: cell-based
# Conditions: cAMP assays in human MC3R and human MC4R stable cell lines
# Protocol: The stable cell lines were grown and maintained in selection media consisting of Dulbecco's modified Eagle media (DMEM) with 4.5 g/l D-glucose, and 4 mM L-glutamine (Thermo Fisher Scientific, Waltham, MA), supplemented with 10% fetal bovine serum, 100 units/ml penicillin, 100 μg/ml streptomycin, 2.5 μg/ml amphotericin B, 200 μg/ml hygromycin B (for positive selection of the GScAMP22f luciferase reporter), and Geneticin™ (G418) 700 μg/ml (for MC3R or MC4R selection). Actual serum concentration during the assay is estimated to be about 1%. Cell line identity is routinely verified by qPCR and MC3R- and MC4R-specific oligonucleotides.
# The assay for the determination of the CAMP response in live cells was described previously. […] Ccells were seeded at a density of 20,000 cells per well using 384-well poly-D lysine-coated, clear bottom, and black-wall assay plates (Corning Inc. Corning, NJ). Cells were allowed to attach to the plates for 18 to 24 h after which growth media was removed and 20 ul of 4% D-luciferin (Promega) in CO2 independent, serum-free medium (Thermo Fisher Scientific) was added to each well. […] Intracellular cAMP levels were measured using an FDSS 7000EX Functional Drug Screening System (Hamamatsu Photonics, Hamamatsu, Japan) in the Center for Chemical Genomics at the Life Sciences Institute. This instrument allowed the in-line addition of test-peptides and receptor agonists while simultaneously acquiring the luminescence signal from live cells. […] A submaximal forskolin (20 μM) concentration was also included to serve as a normalization reference to account for cell number variations and differences in assay transducer efficiency between cell lines.
# With this set up it was possible to evaluate the direct agonist effect of the test-peptides on the MC3R and MC4R cell lines during measurement window 1, while the antagonist profile in the presence of EC90 α-MSH was determined on measurement window 2. […] EC50 or IC50 potency values were determined by non-linear regression by fitting the data to a sigmoid four-parameter variable slope model using the GraphPad Prism version 8.4 software package (San Diego CA).
# human MC4R, sequence (P32245 whole entry): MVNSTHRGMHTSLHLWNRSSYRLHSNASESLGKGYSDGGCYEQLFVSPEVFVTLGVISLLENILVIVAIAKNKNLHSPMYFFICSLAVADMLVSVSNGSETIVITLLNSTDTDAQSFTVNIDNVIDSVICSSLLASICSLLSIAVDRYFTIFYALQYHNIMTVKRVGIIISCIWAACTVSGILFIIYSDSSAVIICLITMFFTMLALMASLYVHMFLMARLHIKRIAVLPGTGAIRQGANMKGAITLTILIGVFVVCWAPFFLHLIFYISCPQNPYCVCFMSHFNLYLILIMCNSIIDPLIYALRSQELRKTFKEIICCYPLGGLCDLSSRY
row,Compound,MC3R selectivity (relative to MC4R)
1,"CCCC[C@H](NC(C)=O)C(=O)N[C@H](C)C(=O)N[C@@H](Cc1c[nH]cn1)C(=O)N[C@@H](Cc1ccc(I)cc1)C(=O)N[C@@H](CCCNC(=N)N)C(=O)N[C@H](Cc1ccccc1)C(=O)N[C@@H](CC(=O)O)C(=O)N[C@@H](CCCNC(=N)N)C(=O)N[C@@H](Cc1ccccc1)C(=O)NCC(=O)O [CTX-1503, Nle-D-Ala-His-Phe(4-I)-Arg-D-Phe-Asp-Arg-Phe-Gly] (Ac-[Nle][dA]H[Phe(4-I)]R[dF]DRFG-OH)",214
2,"CCCC[C@H](NC(C)=O)C(=O)N[C@H](C)C(=O)N[C@@H](Cc1c[nH]cn1)C(=O)N[C@@H](Cc1ccccc1)C(=O)N[C@@H](CCCNC(=N)N)C(=O)N[C@H](Cc1c[nH]c2ccccc12)C(=O)N[C@@H](CC(=O)O)C(=O)N[C@@H](CCCCN)C(=O)N[C@@H](Cc1ccccc1)C(=O)NCC(=O)O [CTX-1535, Nle-D-Ala-His-Phe-Arg-D-Trp-Asp-Lys-Phe-Gly] (Ac-[Nle][dA]HFR[dW]DKFG-OH)","1,589"
3,"CC(=O)N[C@@H](CO)C(=O)NCC(=O)N[C@@H](Cc1c[nH]cn1)C(=O)N[C@H](Cc1ccccc1)C(=O)N[C@@H](CCCNC(=N)N)C(=O)N[C@H](Cc1c[nH]c2ccccc12)C(=O)N[C@@H](CC(=O)O)C(N)=O [CTX-1111, Ser-Gly-His-D-Phe-Arg-D-Trp-Asp] (Ac-SGH[dF]R[dW]D-NH2)",0.1
4,"CC(=O)N[C@@H](Cc1ccc(O)cc1)C(=O)N[C@H](C(=O)N[C@@H](CCC(=O)O)C(=O)NC(C)(C)C(=O)N[C@@H](Cc1c[nH]cn1)C(=O)N[C@@H](Cc1ccc(I)cc1)C(=O)N[C@@H](CCCNC(=N)N)C(=O)N[C@H](Cc1c[nH]c2ccccc12)C(=O)N[C@@H](CC(=O)O)C(=O)N[C@@H](CCCNC(=N)N)C(=O)N[C@@H](Cc1ccccc1)C(=O)NCC(=O)O)C(C)C [CTX-1195, Tyr-Val-Glu-Aib-His-Phe(4-I)-Arg-D-Trp-Asp-Arg-Phe-Gly] (Ac-YVE[Aib]H[Phe(4-I)]R[dW]DRFG-OH)",51
5,"CCCC[C@H](NC(C)=O)C(=O)N[C@H](C)C(=O)N[C@@H](Cc1c[nH]cn1)C(=O)N[C@@H](Cc1ccccc1)C(=O)N[C@@H](CCCNC(=N)N)C(=O)N[C@H](Cc1c[nH]c2ccccc12)C(=O)N[C@H](Cc1ccccc1)C(=O)N[C@@H](CCCNC(=N)N)C(=O)N[C@@H](Cc1ccccc1)C(=O)NCC(=O)O [CTX-1530, Nle-D-Ala-His-Phe-Arg-D-Trp-D-Phe-Arg-Phe-Gly] (Ac-[Nle][dA]HFR[dW][dF]RFG-OH)",15
6,"CCCC[C@H](NC(=O)[C@@H](NC(=O)[C@H](N)Cc1ccc(O)cc1)C(C)C)C(=O)N[C@H](C)C(=O)N[C@@H](Cc1c[nH]cn1)C(=O)N[C@@H](Cc1ccc(I)cc1)C(=O)N[C@@H](CCCNC(=N)N)C(=O)N[C@H](Cc1c[nH]c2ccccc12)C(=O)N[C@@H](CC(=O)O)C(N)=O [CTX-1171, D-Tyr-Val-Nle-D-Ala-His-Phe(4-I)-Arg-D-Trp-Asp] (H-[dY]V[Nle][dA]H[Phe(4-I)]R[dW]D-NH2)",234
7,"CCCC[C@H](NC(C)=O)C(=O)N[C@H](C)C(=O)N[C@@H](Cc1c[nH]cn1)C(=O)N[C@@H](Cc1ccccc1)C(=O)N[C@@H](CCCNC(=N)N)C(=O)N[C@H](Cc1c[nH]c2ccccc12)C(=O)N[C@@H](CCCC)C(=O)N[C@@H](CCCNC(=N)N)C(=O)N[C@@H](Cc1ccccc1)C(=O)NCC(=O)O [CTX-1532, Nle-D-Ala-His-Phe-Arg-D-Trp-Nle-Arg-Phe-Gly] (Ac-[Nle][dA]HFR[dW][Nle]RFG-OH)",184
8,"CCCC[C@H](NC(=O)[C@@H](NC(=O)[C@@H](N)Cc1ccc(O)cc1)C(C)C)C(=O)NCC(=O)N[C@@H](Cc1c[nH]cn1)C(=O)N[C@H](Cc1ccccc1)C(=O)N[C@@H](CCCNC(=N)N)C(=O)N[C@H](Cc1c[nH]c2ccccc12)C(=O)N[C@@H](CC(=O)O)C(N)=O [CTX-1107, Tyr-Val-Nle-Gly-His-D-Phe-Arg-D-Trp-Asp] (H-YV[Nle]GH[dF]R[dW]D-NH2)",2.4

# From patent US20240287154A1, “MC3R AGONIST PEPTIDES” (The Regents of the University of Michigan, priority 2021, published 2024)
